According to US12157730B2, “Heteroaryl derivative, method for producing same, and pharmaceutical composition comprising same as effective component” (VORONOI INC., priority 2019, dated 2024):

Each compound was assayed against T1, Ba/F3 cell EGFR Exon20 ins NPH (Homo sapiens, UniProt P00533, INS773NPH) (assay: Ba/F3 cell proliferation suppression, EGFR Exon20 ins NPH). Settings: GI50 class; Ba/F3 cell line with NPH inserted at Exon20 of EGFR; 72 hours.
T1 construct: expressed in transfected cells; host or cells: Ba/F3
Format: cell-based
Outline: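 After 72 h compound exposure (twelve 3-fold steps, 0.3 nM–50 um final), live cells were measured by CellTiter-Glo luminescence and growth expressed as % of control to derive GI50. Cells were seeded at 3000–5000 per well a day earlier; Ba/F3 medium contained IL-3; three repeats.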

SMILES | Ba/F3 (NPH) Activity
C=CCN1CCN(C2CCN(c3cc(OC)c(Nc4cc(N5OCC[C@@H]5c5ccc(Cl)cc5F)ncn4)cc3NC(=O)C=C)CC2)CC1 [Example 211, N-(2-(4-(4-allylpiperazine-1-yl)piperidine-1-yl)-5-((6-((R)-3-(4-chloro-2-fluorophenyl)isoxazolidine-2-yl)pyrimidine-4-yl)amino)-4-methoxyphenyl) acrylamide] | A (GI50 < 50 nM)
C=CC(=O)Nc1cc(Nc2cc(N3OCC[C@@H]3c3ccc4ccccc4c3)ncn2)c(OC)cc1N1CCC(N2CCOCC2)CC1 [compound 555, N-(4-methoxy-2-(4-morpholinopiperidine-1-yl)-5-((6-((R)-3-(naphthalene-2-yl)isoxazolidine-2-yl)pyrimidine-4-yl)amino)phenyl)acrylamide] | B (50 nM ≤ GI50 < 500 nM)
C=CC(=O)Nc1cc(Nc2cc(N3OCC[C@@H]3c3cccc(OC)c3)ncn2)c(OC)cc1N1CCC(N2CCN(CCC)CC2)CC1 [compound 549, N-(4-methoxy-5-((6-((R)-3-(3-methoxyphenyl)isoxazolidine-2-yl)pyrimidine-4-yl)amino)-2-(4-(4-propylpiperazine-1-yl)piperidine-1-yl)phenyl) acrylamide] | A (GI50 < 50 nM)
C=CC(=O)Nc1cc(Nc2cc(N3OCC[C@@H]3c3ccc(C)nc3)ncn2)c(OC)cc1N1CCN(CCN(C)C)CC1 [Example 219, N-(2-(4-(2-(dimethylamino)ethyl)piperazine-1-yl)-4-methoxy-5-((6-((R)-3-(6-methylpyridine-3-yl)isoxazolidine-2-yl)pyrimidine-4-yl)amino)phenyl)acrylamide] | B (50 nM ≤ GI50 < 500 nM)
C=CC(=O)Nc1cc(Nc2cc(N3OCC[C@@H]3c3ccc(F)c(Cl)c3F)ncn2)c(OC)cc1N1CCC(N2C[C@H]3C[C@@H]2CO3)CC1 [compound 635, N-(2-(4-((1R,4R)-2-oxa-5-azabicyclo[2.2.1]heptane-5-yl)piperidine-1-yl)-5-((6-((R)-3-(3-chloro-2,4-difluorophenyl)isoxazolidine-2-yl)pyrimidine-4-yl)amino)-4-methoxyphenyl) acrylamide] | A (GI50 < 50 nM)
C=CC(=O)Nc1cc(Nc2cc(N3OCC[C@@H]3c3cc(F)cc(F)c3)ncn2)c(OC)cc1N1CCC(N2C[C@H]3C[C@@H]2CN3CC)CC1 [Example 267, N-(5-((6-((R)-3-(3,5-difluorophenyl)isoxazolidine-2-yl)pyrimidine-4-yl)amino)-2-(4-((1R,4R)-5-ethyl-2,5-diazabicyclo[2.2.1]heptane-2-yl)piperidine-yl)-4-1-methoxyphenyl) acrylamide] | A (GI50 < 50 nM)
C=CC(=O)Nc1cc(Nc2cc(N3OCC[C@@H]3c3cccc(OC)c3)ncn2)c(OC)cc1N1CCC(N2CCN(C3CC3)CC2)CC1 [Example 65, N-(2-(4-(4-cyclopropylpiperazine-1-yl)piperidine-1-yl)-4-methoxy-5-((6-((R)-3-(3-methoxyphenyl)isoxazolidine-2-yl)pyrimidine-4-yl)amino)phenyl) acrylamide] | A (GI50 < 50 nM)
C=CC(=O)Nc1cc(Nc2cc(N3OCC[C@@H]3c3cccc(C(F)(F)F)c3)ncn2)c(OC)cc1N1CC[C@H](N2CCOCC2)C1 [compound 507, N-(4-methoxy-2-((S)-3-morpholinopyrolidine-1-yl)-5-((6-((R)-3-(3-(trifluoromethyl)phenyl)isoxazolidine-2-yl)pyrimidine-4-yl)amino)phenyl)acrylamide] | B (50 nM ≤ GI50 < 500 nM)
C=CC(=O)Nc1cc(Nc2cc(N3OCC[C@@H]3c3cccc(Cl)c3)ncn2)c(OC)cc1N1CCN(C)CC1 [compound 360, N-(5-((6-((R)-3-(3-chlorophenyl)isoxazolidine-2-yl)pyrimidine-4-yl)amino)-4-methoxy-2-(4-methylpiperazine-1-yl)phenyl)acrylamide] | A (GI50 < 50 nM)
C=CC(=O)Nc1cc(Nc2cc(N3OCC[C@@H]3c3cccc(Cl)c3Cl)ncn2)c(OC)cc1N1CCN(CC2CC2)CC1 [compound 567, N-(2-(4-(cyclopropylmethyl)piperazine-1-yl)-5-((6-((R)-3-(2,3-dichlorophenyl)isoxazolidine-2-yl)pyrimidine-4-yl)amino)-4-methoxyphenyl) acrylamide] | A (GI50 < 50 nM)

Results, then the compound that gave them:

Ba/F3 (NPH) Activity | SMILES
A (GI50 < 50 nM) | C=CC(=O)Nc1cc(Nc2cc(N3OCC[C@@H]3c3cccc(C(F)(F)F)c3)ncn2)c(OC)cc1N1CCC(N2CCN(C3CC3)[C@@H](C)C2)CC1 [compound 941, N-(2-(4-((S)-4-cyclopropyl-3-methylpiperazine-1-yl)piperidine-1-yl)-4-methoxy-5-((6-((R)-3-(3-(trifluoromethyl)phenyl)isoxazolidine-2-yl)pyrimidine-4-yl)amino)phenyl) acrylamide]
A (GI50 < 50 nM) | C=CC(=O)Nc1cc(Nc2cc(N3OCC[C@@H]3c3cc(F)cc(F)c3)ncn2)c(OC)cc1N1CCC(N2CCN(C(C)CC)CC2)CC1 (stereo partly drawn) [compound 894, N-(2-(4-(4-(sec-butyl)piperazine-1-yl)piperidine-1-yl)-5-((6-((R)-3-(3,5-difluorophenyl)isoxazolidine-2-yl)pyrimidine-4-yl)amino)-4-methoxyphenyl) acrylamide]
A (GI50 < 50 nM) | C=CC(=O)Nc1cc(Nc2cc(N3OCC[C@@H]3c3ccc(Cl)c(Cl)c3)ncn2)c(OC)cc1N1CCC(N(C)C)CC1 [compound 677, N-(5-((6-((R)-3-(3,4-dichlorophenyl)isoxazolidine-2-yl)pyrimidine-4-yl)amino)-2-(4-(dimethylamino)piperidine-1-yl)-4-methoxyphenyl) acrylamide]
A (GI50 < 50 nM) | C=CC(=O)Nc1cc(Nc2cc(N3OCC[C@@H]3c3cc(F)ccc3F)ncn2)c(OC)cc1N1CCC(N2CC3CCC(C2)O3)CC1 [compound 820, N-(2-(4-(8-oxa-3-azabicyclo[3.2.1]octan-3-yl)piperidine-1-yl)-5-((6-((R)-3-(2,5-difluorophenyl)isoxazolidine-2-yl)pyrimidine-4-yl)amino)-4-methoxyphenyl) acrylamide]
A (GI50 < 50 nM) | C=CC(=O)Nc1cc(Nc2cc(N3OCC[C@@H]3c3c(F)ccc(F)c3F)ncn2)c(OC)cc1N1CCC(N2C[C@@H](C)O[C@@H](C)C2)CC1 [compound 644, N-(2-(4-((2S,6R)-2,6-dimethylmorpholino)piperidine-1-yl)-4-methoxy-5-((6-((R)-3-(2,3,6-trifluorophenyl)isoxazolidine-2-yl)pyrimidine-4-yl)amino)phenyl)acrylamide]
A (GI50 < 50 nM) | C=CC(=O)Nc1cc(Nc2cc(N3OCC[C@@H]3c3c(F)ccc(F)c3Cl)ncn2)c(OC)cc1N1CCC(N2C[C@H]3C[C@@H]2CO3)CC1 [compound 692, N-(2-(4-((1R,4R)-2-oxa-5-azabicyclo[2.2.1]heptane-5-yl)piperidine-1-yl)-5-((6-((R)-3-(2-chloro-3,6-difluorophenyl)isoxazolidine-2-yl)pyrimidine-4-yl)amino)-4-methoxyphenyl) acrylamide]
B (50 nM ≤ GI50 < 500 nM) | C=CC(=O)Nc1cc(Nc2cc(N3OCC[C@@H]3c3ccc(Cl)cc3)ncn2)c(OC)cc1N1CC[C@@H](N(C)C)C1 [compound 695, N-(5-((6-((R)-3-(4-chlorophenyl)isoxazolidine-2-yl)pyrimidine-4-yl)amino)-2-((R)-3-(dimethylamino)pyrolidine-1-yl)-4-methoxyphenyl) acrylamide]
A (GI50 < 50 nM) | C=CC(=O)Nc1cc(Nc2cc(N3OCC[C@@H]3Cc3ccccc3)ncn2)c(OC)cc1N1C[C@@H]2C[C@H]1CN2CC [compound 950, N-(5-((6-((S)-3-benzylisoxazolidine-2-yl)pyrimidine-4-yl)amino)-2-((1S,4S)-5-ethyl-2,5-diazabicyclo [2.2.1]heptane-2-yl)-4-methoxyphenyl) acrylamide]
A (GI50 < 50 nM) | C=CC(=O)Nc1cc(Nc2cc(N3OCC[C@@H]3c3ccc(F)c(Cl)c3)ncn2)c(OC)cc1N1CCN(C2CC2)CC1 [compound 725, N-(5-((6-((R)-3-(3-chloro-4-fluorophenyl)isoxazolidine-2-yl)pyrimidine-4-yl)amino)-2-(4-cyclopropylpiperazine-1-yl)-4-methoxyphenyl) acrylamide]
A (GI50 < 50 nM) | C=CC(=O)Nc1cc(Nc2cc(N3OCC[C@@H]3c3ccc(F)c(Cl)c3)ncn2)c(OC)cc1N1CCC(N2CCN(C)[C@@H](C)C2)CC1 [compound 900, N-(5-((6-((R)-3-(3-chloro-4-fluorophenyl)isoxazolidine-2-yl)pyrimidine-4-yl)amino)-2-(4-((S)-3,4-dimethylpiperazine-1-yl)piperidine-1-yl)-4-methoxyphenyl) acrylamide]
B (50 nM ≤ GI50 < 500 nM) | C=CC(=O)Nc1cc(Nc2cc(N3OCC[C@@H]3c3ccc(Cl)cc3)ncn2)c(OC)cc1N1CCC(N2CCC(N(C)C)CC2)CC1 [compound 808, N-(5-((6-((R)-3-(4-chlorophenyl)isoxazolidine-2-yl)pyrimidine-4-yl)amino)-2-(4-(dimethylamino)-[1,4'-bipiperidine]-1'-yl)-4-methoxyphenyl) acrylamide]
B (50 nM ≤ GI50 < 500 nM) | C=CC(=O)Nc1cc(Nc2cc(N3OCC[C@@H]3c3c(F)ccc(F)c3Cl)ncn2)c(OC)cc1N1CCN(C2CC2)CC1 [compound 691, N-(5-((6-((R)-3-(2-chloro-3,6-difluorophenyl)isoxazolidine-2-yl)pyrimidine-4-yl)amino)-2-(4-cyclopropylpiperazine-1-yl)-4-methoxyphenyl) acrylamide]
